Results: US20160193148A1, “LIPOSOMAL FORMULATIONS FOR THE TREATMENT OF BACTERIAL INFECTIONS” (UNIVERSITY OF GEORGIA RESEARCH FOUNDATION, INC., priority 2013, published 2016)
Several values for one entry are separate records, joined by “and”; a condition that tells them apart may be missing. Equal entries are not always repeated. Where two headings read alike, the source gives them in different places. Marks after values point to notes of the source that are not given here.

Legend:
[1] = PELF gentamicin concentrations after single IV or nebulized dose in foals
Protocol: (§1) Eight healthy 5-7-week-old Quarter Horse foals were randomly assigned to one of 4 groups using a balanced Latin-square design. Foals were considered healthy on the basis of physical examinations, complete blood cell counts and plasma biochemical profiles. […] The liposome gentamicin formulation was nebulized using Nortev FLEXINEB. For each treatment, gentamicin was administered over a period of 15 minutes. There was a washout period of 7-14 days between each treatment.
(§2) For the BAL collection, foals were sedated with xylazine and butorphanol. Concentrations of gentamicin were measured in plasma and in bronchoalveolar cells using HPLC-MS.
(§3) Eight foals received a single IV or nebulized dose (6.6 mg/kg bwt) of FG^h or LG in a balanced Latin square design. Beginning at 5-7 weeks of age, every foal received each of the 4 possible drug-route combinations with a 14-day washout period between each administration. Intravenous FG and LG were diluted in 250 ml of sterile 0.9% saline and administered via a jugular catheter as a constant rate infusion over 15 min. Nebulized FG and LG were administered by inhalation over 15 minutes via a commercial equine nebulizer. To ensure equivalent rate of delivery, FG was diluted to the same volume as LG with sterile 0.9% saline. Particle size of nebulized LG was verified using laser diffraction. Blood samples for plasma separation were obtained from a catheter placed in the contralateral jugular vein prior to each drug administration, and at 5, 10, 20, 30, 45 minutes and 1, 1.5, 2, 3, 4, 6, 8, 12, 16, 24 and 48 hours after the end of the 15 minute IV infusion or nebulization period. Bronchoalveolar lavage (BAL) fluid was collected at 2, 4, 8, 24, and 48 hours. Foals were sedated with xylazine hydrochloride (0.5 mg/kg bwt IV) and butorphanol tartrate (0.07 mg/kg bwt IV) prior to collection of BAL fluid. Prior to analysis for gentamicin concentration, blood samples were centrifuged at 400×g for 10 minutes and the resultant plasma frozen at −80° C. until assayed.
(§4) A 10 mm diameter, 2.4 m BAL catheter^k was passed via nasal approach until wedged into a bronchus. The lavage solution consisted of 4 aliquots of 60 ml 0.9% saline solution infused and instantly aspirated. Immediately upon collection, the total volume of BAL fluid recovered was measured and a 3 ml aliquot saved in an EDTA tube from which total nucleated cell count was determined by use of a cell counter.^1 BAL fluid was immediately centrifuged at 400×g for 10 min. The BAL cells in the resultant pellet were washed, re-suspended in 500 μl of acetonitrile: 0.2% formic acid (1:1, v/v), vortexed, and frozen at −80° C. until assayed. Supernatant BAL fluid was also frozen at −80° C. until assayed. Before assaying, the cell pellet samples were thawed, vortexed vigorously and sonicated for 10 minutes to ensure complete cell lysis. The resulting suspension was centrifuged at 500×g for 10 minutes and the supernatant fluid was used to determine the intracellular concentrations of gentamicin.
(§5) Briefly, gentamicin was extracted from plasma (250 μl) and urine (500 μl) using protein precipitation with an equal volume of ice-cold 90:10 acetonitrile: 0.2% formic acid (v/v). Extracted samples were centrifuged (2° C. at 10,000×g for 10 min) twice. Two-hundred microliters of the supernatants were transferred to polypropylene inserts for injection. The supernatant derived from the lyzed BAL cell pellet was transferred to polypropylene inserts for direct injection without further processing. […] An aliquot of the resultant supernatant was then mixed with an equal volume of ice-cold acetonitrile, centrifuged (2° C. at 10,000×g for 10 minutes) and 200 μl was transferred to polypropylene inserts for injection. Calibration standards were prepared in drug-free foal plasma, BAL fluid or urine and then extracted as described above so that standard curves specific to each biologic matrix could be constructed.

R. equi isolates = conditions: Riesenberg et al. 2013; cited from earlier work
[2] = simulation, Burton et al. 2013, cited from earlier work
[3] = BAL cell gentamicin concentrations after single IV or nebulized dose in foals; conditions: BAL cells
Protocol: as §1, §2, §3, §4, §5

For gentamicin sulfate [Free Gentamicin], the AUC0-t ([1]; IV) was 44.66 ± 20.96^a μg · h/ml, the C24 h ([1]; IV) was 840 ± 640 ng/mL and the “Tmax (median and range)” value ([1]; IV) was 6 (4-8) h. For the same substance, the AUC0-24 ([1]; IV, Table 2) was 44800 ± 21000 ng·h/mL, the C48 h ([1]; IV, Table 2) was 840 ± 640 ng/mL and the Cmax ([1]; IV, Table 2) was 4.6 ± 1.9 µg/mL. For the same substance, the Cmax ([1]; IV, Table 5) was 4.64 ± 1.99^a μg/ml, the AUC0-24 ([1]; N (nebulized), Table 2) was 41000 ± 15800 ng·h/mL and the C48 h ([1]; N (nebulized), Table 2) was 350 ± 340 ng/mL. The Cmax ([1]; N (nebulized), Table 2) was 13.0 ± 6.7 µg/mL, the AUC0-t ([1]; Neb) was 40.97 ± 15.81^a μg · h/ml and the C24 h ([1]; Neb) was 350 ± 340 ng/mL. The “Tmax (median and range)” value ([1]; Neb) was 2 (2-2) h, the Cmax ([1]; Neb, Table 5) was 13.02 ± 6.70^c μg/ml and the “MIC that inhibits at least 90% (MIC90) of R. equi isolates” value (R. equi isolates) was 0.5 µg/mL. The “predicted plasma concentration 1 hour after IV administration” value ([2]; at 4 weeks of age) was 25.27 ± 9.52 µg/mL, the “predicted plasma concentration 24 hours after administration” value ([2]; at 4 weeks of age) was 0.20 ± 0.22 µg/mL and the “predicted plasma concentration 1 hour after IV administration” value ([2]; at 12 weeks of age) was 34.52 ± 14.11 µg/mL. For the same substance, the “predicted plasma concentration 24 hours after administration” value ([2]; at 12 weeks of age) was 0.26 ± 0.11 µg/mL, the AUC0-t ([3]; IV) was 58.9 ± 41.5^a μg · h/ml and the C24 h ([3]; IV) was 1500 ± 1230 ng/mL. The “Tmax (median and range)” value ([3]; IV) was 2 (2-8)^a h, the AUC0-24 ([3]; IV, Table 3) was 58900 ± 41500 ng·h/mL and the C48 h ([3]; IV, Table 3) was 0.5 ± 0.6 µg/mL. For the same substance, the Cmax ([3]; IV, Table 3) was 3.0 ± 1.7 µg/mL, the C48 h ([3]; IV, Table 5) was 0.47 ± 0.62^a μg/ml and the Cmax ([3]; IV, Table 5, listed as FG) was 3.0±1.7 μg/ml and 2.98 ± 1.67^a μg/ml. The AUC0-24 ([3]; N (nebulized), Table 3) was 37200 ± 18900 ng·h/mL, the C48 h ([3]; N (nebulized), Table 3) was 0.3 ± 0.2 µg/mL and the Cmax ([3]; N (nebulized), Table 3) was 1.5 ± 0.6 µg/mL. The AUC0-t ([3]; Neb) was 37.2 ± 19.0^a μg · h/ml, the C24 h ([3]; Neb) was 1010 ± 570 ng/mL and the “Tmax (median and range)” value ([3]; Neb) was 3 (2-48)^a h. For the same substance, the C48 h ([3]; Neb, Table 5) was 0.32 ± 0.23^a μg/ml and the Cmax ([3]; Neb, Table 5, listed as FG) was 1.5±0.6 μg/ml and 1.49 ± 0.57^a μg/ml.
